In article PMC6186498 (Toxicology, 2018):
Read-outs that look alike come from different tables or passages of the source. Marks after values point to notes of the source that are not given here.

Experiments:
kidney = settings: cited from earlier work
[1] = for flux through oxidation metabolism pathway over that through conjugation: across all mouse strains examined; for overall flux of glutathione conjugation expressed as dose: after equimolar treatment of TCE or PCE; for yield through glutathione conjugation pathway as % of that through oxidative pathway: range given for TCE and PCE together, approximately; for fraction of the total administered dose remaining unmetabolized until excretion: model estimate at steady state; for TCA(%), percentage of administered TCE excreted in urine / TCOH (%): This study (% estimated), 800 mg/kg oral, M
[2] = cited from earlier work; for inter-strain variability of TCA levels in liver, GSD: Collaborative Cross mouse population
[3] = cited from earlier work
[4] = human, cited from earlier work
[5] = cited from earlier work; for carcinogenicity classification by IARC: ref Guha et al. 2012; for carcinogenicity classification by US EPA: ref U.S. EPA 2011a, b
[6] = at low doses; ref Chiu et al. 2009; cited from earlier work
[7] = mean ± SD, average of all strains, single oral dose 6 mmole/kg
[8] = range over strains, model estimate
[9] = 100 mg/kg oral, mice, PBPK model estimate, ref Chiu et al 2011
[10] = 300 mg/kg oral, mice C57BL/6J, M, ref Cichocki et al 2017
[11] = 10 ppm inhalation, mice, PBPK model estimate, ref Chiu et al 2011
[12] = 100 mg/kg oral, rat, PBPK model estimate, ref Chiu et al 2011
[13] = 10 ppm inhalation, rat, PBPK model estimate, ref Chiu et al 2011
[14] = 100 mg/kg oral, PBPK model estimate, ref Chiu et al 2011
[15] = 1 ppm inhalation, M, ref Chiu et al 2006
[16] = 10 ppm inhalation, PBPK model estimate, ref Chiu et al 2011
[17] = model-derived AUCs across strains
[18] = 200 mg/kg stomach tube, mice NMRI, F, ref Dekant et al. 1984
[19] = 500 mg/kg oral, mice B6C3F1/J, M, ref Green and Prout 1985
[20] = 600 mg/kg oral, mice B6C3F1/J, M, ref Larson and Bull 1992
[21] = 1000 mg/kg oral, mice, PBPK model estimate, ref Chiu et al 2009
[22] = 2100 mg/kg oral, mice B6C3F1/J, M, PBPK model estimate, ref Chiu et al 2014
[23] = 200 mg/kg stomach tube, rat Wistar, F, ref Dekant et al. 1984
[24] = 500 mg/kg oral, rat Osborne-Mendal, M, ref Green and Prout 1985
[25] = 600 mg/kg oral, rat Sprague-Dawley, M, ref Larson and Bull 1992
[26] = 100 ppm inhalation, rat, PBPK model estimate, ref Chiu et al 2009
[27] = 1 ppm inhalation, M, PBPK model estimate, ref Chiu et al 2009
[28] = 70 ppm inhalation, M, ref Monster 1976
[29] = 70 ppm inhalation, M, ref Monster 1979

## N[C@@H](CSC(Cl)=CCl)C(=O)O [DCVC, S-(1,2-dichlorovinyl)-cysteine]
kidney; ref Shirai et al. 2012
  lowest dose with some adverse kidney effects observable: 1 mg/kg

## ClC(Cl)=C(Cl)Cl [PCE, tetrachloroethylene]
[1]
  flux through oxidation metabolism pathway over that through conjugation: 26–34 fold
  overall flux of glutathione conjugation expressed as dose: 2.9 to 4.5 mg/kg
  yield through glutathione conjugation pathway as % of that through oxidative pathway: 0.033%−3.3
[1]; [7]
  First order rate constant, Elimination T/PCE→: 0.17 ± 0.04 h⁻¹
  First order rate constant, GSH conjugation T/PCE→D/TCVG: (460±230)*10^−6 h^−1
  First order rate constant, Oxidation T/PCE→TCA: 0.014 ± 0.003 h⁻¹
[1]; range over strains
  portion of the parent compound that undergoes metabolism: 6.6%–9.7
  fraction of the total administered dose remaining unmetabolized until excretion: 90.3% to 93.5
[1]; [8]
  estimated fraction of the reactive species formation from cysteine conjugates: 46.7% to 52.6
[2]; [9]
  GSH conjugation (%): 0.07%
  Oxidation to GSH: 500
  TCA (%), percentage of administered dose excreted in urine: 35%
[2]; [10]
  GSH conjugation (%): 0.79%
  Oxidation to GSH: 7.5
  TCA (%), percentage of administered dose excreted in urine: 5.9%
[2]; [11]
  GSH conjugation (%): 0.02%
  Oxidation to GSH: 600
  TCA (%), percentage of administered dose excreted in urine: 12%
[2]; single oral dose of PCE, ref Cichocki et al. 2017b
  inter-strain variability of TCA levels in liver, GSD: 1.64
[2]; mice orally dosed with 500 mg/kg 14C-labelled PCE, ref Schumann et al. 1980
  exhalation fraction of PCE: 82.6%
[3]; [12]
  GSH conjugation (%): 0.6%
  Oxidation to GSH: 14.8
  TCA (%), percentage of administered dose excreted in urine: 8.9%
[3]; 10 ppm inhalation, rat Wistar, M&F, ref Volkel et al 1998
  Oxidation to GSH: 623.6
[3]; [13]
  GSH conjugation (%): 0.2%
  Oxidation to GSH: 19.5
  TCA (%), percentage of administered dose excreted in urine: 3.9%
[3]; 20 ppm inhalation, rat Wistar, M&F, ref Volkel et al 1998
  Oxidation to GSH: 540.6
[3]; 40 ppm inhalation, rat Wistar, M&F, ref Volkel et al 1998
  Oxidation to GSH: 316.4
[4]; [14]
  GSH conjugation (%): 18%
  Oxidation to GSH: 0.1
  TCA (%), percentage of administered dose excreted in urine: 1.8%
[4]; [15]
  TCA (%), percentage of administered dose excreted in urine: 0.2–0.8%
[4]; 10 ppm inhalation, M&F, ref Volkel et al 1998
  Oxidation to GSH: 107.7
[4]; [16]
  GSH conjugation (%): 9.4%
  Oxidation to GSH: 0.1
  TCA (%), percentage of administered dose excreted in urine: 0.98%
[4]; 20 ppm inhalation, M&F, ref Volkel et al 1998
  Oxidation to GSH: 89.1
[4]; 40 ppm inhalation, M&F, ref Volkel et al 1998
  Oxidation to GSH: 96.3
[4]; 72 ppm inhalation, M, ref Monster 1979
  TCA (%), percentage of administered dose excreted in urine: 2%
[5]
  carcinogenicity classification by IARC: probably carcinogenic to humans
  carcinogenicity classification by US EPA: likely to be a human carcinogen

## ClC=C(Cl)Cl [TCE, Trichloroethylene]
[1]; B6C3F1/J mice, kidney
  AUC0–36 of TCE as compared to AUC0–36 of PCE, kidney: 2.0%
[1]; B6C3F1/J mice, liver
  AUC0–36 of TCE as compared to AUC0–36 of PCE, liver: 43.9%
[1]; B6C3F1/J mice, lung
  AUC0–36 of TCE as compared to AUC0–36 of PCE, lung: 36.2%
[1]; B6C3F1/J mice, serum
  AUC0–36 of TCE as compared to AUC0–36 of PCE, serum: 39.8%
[1]; mice B6C3F1/J
  TCA(%), percentage of administered TCE excreted in urine: 5.8%
  TCOH (%): 21%
[1]; mice C57BL/6J
  TCA(%), percentage of administered TCE excreted in urine: 3.5%
  TCOH (%): 12%
[1]; mice NZW/LacJ
  TCA(%), percentage of administered TCE excreted in urine: 7.1%
  TCOH (%): 31%
[1]
  flux through oxidation metabolism pathway over that through conjugation: 1,200–3,800 fold
  overall flux of glutathione conjugation expressed as dose: 0.13 to 0.17 mg/kg
  yield through glutathione conjugation pathway as % of that through oxidative pathway: 0.033%−3.3
[1]; higher
  elimination constant for n-acetylcysteine conjugates in TCE-treated as compared to PCE-treated mice: 1.5 fold
[1]; higher than PCE
  TCE elimination rate constant relative to that for PCE: 2.8 fold
[1]; higher than in PCE-treated mice
  formation rate constant of TCA (KTCA) in TCE-treated versus PCE-treated mice: 2.4 fold
[1]; [7]
  First order rate constant, Elimination NAcT/DCVC→: 23.8 ± 10.5 h⁻¹
  First order rate constant, Elimination T/PCE→: 0.49 ± 0.12 h⁻¹
  First order rate constant, Elimination TCA→: 0.05 ± 0.02 h⁻¹
  First order rate constant, Elimination TCOH→: 0.49 ± 0.13 h⁻¹
  First order rate constant, GSH conjugation D/TCVC→NAcD/TCVC: 73.4 ± 17.4 h⁻¹
  First order rate constant, GSH conjugation D/TCVC→Reactive species: 1.69 ± 0.45 h⁻¹
  First order rate constant, GSH conjugation D/TCVG→D/TCVC: 0.30 ± 0.07 h⁻¹
  First order rate constant, GSH conjugation T/PCE→D/TCVG: (3.5±1.1)*10^−6 h^−1
  First order rate constant, Oxidation T/PCE→TCA: 0.034 ± 0.010 h⁻¹
  First order rate constant, Oxidation T/PCE→TCOH: 0.13 ± 0.04 h⁻¹
[1]; [17]
  inter-strain variability of AUC of glutathione conjugation metabolites, GSD: 1.04−1.92
  inter-strain variability of AUC of oxidative metabolites (TCA and TCOH), GSD: 1.24−2.04
[1]; mouse, in vivo
  AUC0–36 of TCE as compared to AUC0–36 of PCE, brain: 29.0%
  elimination rate constant (Ke) of TCA in TCE-treated mice as % of that in PCE-treated mice: 62.5%
[1]; range over strains
  portion of the parent compound that undergoes metabolism: 15.7%−38.3
  fraction of the total administered dose remaining unmetabolized until excretion: 61.7% to 84.3
[1]; [8]
  Excreted TCA, % of the total dose: 3.5%−7.1
  TCOH, % of the total dose: 12.2−31.2%
  estimated fraction of the reactive species formation from cysteine conjugates: 2.1% to 2.4
[1]; serum, liver, brain, and lung, except for C57BL/6J mice, higher
  AUC0–36 of TCA in TCE-treated mice as compared to PCE-treated mice: 1.2–1.7 fold
[2]; [18]
  TCA(%), percentage of total urinary metabolite calculated based on radioactivity: 0.1 ^* %
  TCOH (%), percentage of total urinary metabolite calculated based on radioactivity: 94.3 ^* %
[2]; [19]
  TCA(%), percentage of total urinary metabolite calculated based on radioactivity: 7.2 ^* %
  TCOH (%), percentage of total urinary metabolite calculated based on radioactivity: 91.1 ^* %
[2]; [20]
  TCA(%), percentage of administered TCE excreted in urine: 3.9%
  TCOH (%): 31%
[2]; [21]
  GSH conjugation (%): 0.2%
  Oxidation to GSH: 450
  TCA(%) and TCOH (%), one cell spanning both columns: 90%
[2]; [22]
  GSH conjugation (%): 0.065%
  Oxidation to GSH: 290
  TCA(%), percentage of administered TCE excreted in urine: 4.4%
[2]; single oral dose of TCE, ref Venkatratnam et al. 2017
  inter-strain variability of TCA levels in liver, GSD: 2.24
[3]; [23]
  TCA(%), percentage of total urinary metabolite calculated based on radioactivity: 15.3 ^* %
  TCOH (%), percentage of total urinary metabolite calculated based on radioactivity: 73.6 ^* %
[3]; [24]
  TCA(%), percentage of total urinary metabolite calculated based on radioactivity: 6.3 ^* %
  TCOH (%), percentage of total urinary metabolite calculated based on radioactivity: 90.1 ^* %
[3]; [25]
  TCA(%), percentage of administered TCE excreted in urine: 4.1%
  TCOH (%): 23.2%
[3]; [26]
  GSH conjugation (%): 0.06%
  Oxidation to GSH: 666.7
  TCA(%) and TCOH (%), one cell spanning both columns: 40%
[3]; 505 ppm inhalation, rat F344, M, PBPK model estimate, ref Fisher et al. 1991
  TCA(%), percentage of administered TCE excreted in urine: 6%
[4]; [27]
  GSH conjugation (%): 5%
  Oxidation to GSH: 7.6
  TCA(%) and TCOH (%), one cell spanning both columns: 38%
[4]; [15]
  TCA(%), percentage of administered TCE excreted in urine: 1–2%
  TCOH (%): 16–28%
[4]; [28]
  TCA(%), percentage of administered TCE excreted in urine: 18%
  TCOH (%): 39%
[4]; [29]
  TCA(%), percentage of administered TCE excreted in urine: 21%
  TCOH (%): 43%
[6]
  glutathione conjugation metabolites of TCE in rodents as % of that in humans: approximately 1%
[5]
  carcinogenicity classification by IARC: carcinogenic to humans
  carcinogenicity classification by US EPA: carcinogenic to humans

## OCC(Cl)(Cl)Cl [TCOH, trichloroethanol]
[1]; TCE-treated mice, brain
  AUC0–36 of TCOH compared to that of TCA, brain: 22.7–53.1%
[1]; TCE-treated mice, kidney
  AUC0–36 of TCOH compared to that of TCA, kidney: 266–322%
[1]; TCE-treated mice, liver, kidney, brain, lung, serum examined
  tissue in which TCOH is most abundant: most abundant in kidney
[1]; TCE-treated mice, lung
  AUC0–36 of TCOH compared to that of TCA, lung: 49.8–68.7%
[1]; TCE-treated mice, serum
  AUC0–36 of TCOH compared to that of TCA, serum: 35.7–60%

## N[C@@H](CSC(Cl)=C(Cl)Cl)C(=O)O [TCVC, S-(1,2,2-trichlorovinyl)-L-cysteine]
kidney; directly administered cysteine conjugates, acute, sub-acute and sub-chronic exposure, ref Birner et al. 1997, Shirai et al. 2012, Vaidya et al. 2003
  doses at which most studies reported kidney effects: above 10 mg/kg
kidney; equimolar doses compared, ref Birner et al. 1997
  comparative nephrotoxicity of TCVC and DCVC: more nephrotoxic than DCVC
